From US9481639B2, “Substituted tetracycline compounds for treatment of inflammatory skin disorders” (Paratek Pharmaceuticals, Inc., priority 2006, dated 2016)
In brackets after ≈: the same amount, converted by molar mass. Like-named read-outs stand apart in the source and are kept apart here.

Experiments:
[1] = system: carrageenan induced rat paw inflammation; assay: Rat carrageenan-induced paw edema inflammatory model; format: in vivo; settings: for 50% effective concentration (EC50), carrageenan induced paw inflammation: IP 30 minutes before carrageenan, paw volume 3 hours after
Method: The model used a sub-plantar injection of carrageenan in the rat to induce an inflammatory response. The test compound or saline (control) was administered IP 30 minutes before a subplantar injection of carrageenan (1.5 mg/0.1 mL). Paw volume was measured […] before subplantar injection and again 3 hours after the injection of carrageenan using a plethysmometer. Significant differences as determined by a Kruskal-Wallis One Way ANOVA are noted between the inflammation of the untreated controls versus treated animals […]

[2] = system: B. thetaiotaomicron ATCC 29741; assay: Antibacterial MIC, CLSI broth microdilution; format: cell-based
Method: (§1) Gram (−) and gram (+) antibacterial minimum inhibitory concentration (MIC) values (μg/mL) were obtained using CLSI methodology for anti-bacterial susceptibility testing. On each day of testing, serial dilutions of compounds were prepared in microdilution plates using a Tecan robotic workstation. Mueller Hinton broth cultures of representative sensitive and resistant gram negative strains were grown or adjusted to match the turbidity of a 0.5 McFarland standard. 1:200 dilutions were made in an appropriate broth (cation supplemented Mueller Hinton broth) to allow a final inoculum of 1×10^5 cfu. Plates were incubated at 35° C. in ambient air for 18-24 hours, were read spectrophotometrically and checked manually for evidence of bacterial growth. The lowest dilution of compound that inhibited growth was recorded as the MIC. Lysed horse blood was used to supplement broth for testing S. pneumoniae. The MIC's for each compound were assessed against S. aureus, S. pneumoniae, P. acnes, E. coli and B. theta.

in vitro = format: cell-based
Method: Mammalian cell cytotoxicity was assessed to evaluate potential in vivo risks associated with the tetracycline compounds of the invention. A soluble, non-toxic redox dye (“Resazurin”; Alamar Blue) was used to assess a tetracycline compound's effect on cellular metabolism. At the onset of the experiment, cultures of mammalian COS-1 or CHO cells were washed, trypsinized, and harvested. […] On the next day, serial dilutions of test drug were prepared under sterile conditions and transferred to cell plates. Plates were then incubated under the above conditions for 24 hours. Following the incubation period, the media/drug was aspirated, and 50 μL of resazurin was added. Plates were then incubated under the above conditions for 2 hours and then in the dark at room temperature for an additional 30 minutes. Fluorescence measurements were taken (excitation 535 nm, emission 590 nm) and toxic effects in treated versus control cells were compared based on the degree of fluorescence in each well.

E. coli MG. 1655 = assay: Antibacterial MIC, CLSI broth microdilution; format: cell-based; settings: Escherichia coli, 35° C., 18-24 hours
Method: as §1

P. acnes ATCC 6919 = assay: Antibacterial MIC, CLSI broth microdilution; format: cell-based; settings: Cutibacterium acnes, ATCC6919
Method: as §1

S. aureus RN450 [3] = assay: Antibacterial MIC, CLSI broth microdilution; format: cell-based; settings: Staphylococcus aureus, 35° C., 18-24 hours
Method: as §1

P. acnes ATCC 11827 = assay: Antibacterial MIC, CLSI broth microdilution; format: cell-based; settings: Cutibacterium acnes, ATCC11827
Method: as §1

[4] = system: S. pneumoniae 157E - Strep; assay: Antibacterial MIC, CLSI broth microdilution; format: cell-based; settings: Streptococcus pneumoniae, 157ESTREP; broth supplemented with lysed horse blood
Method: as §1

E. coli ATCC 25922 = assay: Antibacterial MIC, CLSI broth microdilution; format: cell-based; settings: Escherichia coli, ATCC25922; 35° C., 18-24 hours
Method: as §1

S. aureus RN450 [5] = assay: In vivo anti-bacterial activity, S. aureus lethal infection model; settings: Staphylococcus aureus, sc; mice, lethal IP S. aureus RN450, single subcutaneous dose 5 mg/kg, survival at 24 hours; read-out: Percent Survival
Method: Groups of five mice were injected intraperitoneally with a lethal dose of S. aureus RN450 in a medium of mucin. Mice were evaluated at 24 hours to determine survival. […] In some instances, a dose response study was performed with the compound such that a PD50 (a dose of compound that protects 50% of the animals) could be calculated.

[6] = Bacteroides thetaiotaomicron, ATCC29741, read-out: MIC B. thetaiotaomicron ATCC 29741

Row | Compound | 50% effective concentration (EC50), carrageenan induced paw inflammation [1] | MIC [2, 6] [µg/mL] | modulation of carrageenan induced inflammation compared with reference tetracycline ([1]; IP, various doses, A vs doxycycline (FIG. 1), P vs minocycline (FIG. 2)) | IC50 at 24 h (in vitro; African green monkey) [µg/mL] | IC50 at 24 h (in vitro; Chinese hamster) [µg/mL] | MIC ([2]; Bacteroides thetaiotaomicron, ATCC29741; read-out: MIC B. thetaiotaomicron ATCC 29741) [µg/mL] | MIC (E. coli MG. 1655) [µg/mL] | MIC (P. acnes ATCC 6919) [µg/mL] | MIC (S. aureus RN450 [3]) [µg/mL] | MIC (P. acnes ATCC 11827) [µg/mL] | MIC [4] [µg/mL] | MIC (E. coli ATCC 25922) [µg/mL] | responders at 5 mg/kg (S. aureus RN450 [5]) [%]
1 | C[C@H]1c2cccc(O)c2C(=O)C2=C(O)[C@]3(O)C(=O)C(C(N)=O)=C(O)[C@@H](N(C)C)[C@@H]3[C@@H](O)[C@@H]21 [Doxycycline, reference compound] | approximately 50 mg/kg | 4 to 8 (≈ 9 to 18 µM) |  |  |  |  |  |  |  |  |  |  | 
2 | CCO/N=C(/C)c1ccc(O)c2c1CC1CC3[C@H](N(C)C)C(O)=C(C(N)=O)C(=O)[C@@]3(O)C(O)=C1C2=O (stereo partly drawn) [Compound A] |  |  | improved activity | < 35 | < 35 | > 8 | 4 to 8 (≈ 8.01 to 16 µM) | < 4 | < 4 | < 4 | < 4 | < 4 | 100
3 | CN(C)c1ccc(O)c2c1C[C@H]1C[C@H]3[C@H](N(C)C)C(O)=C(C(N)=O)C(=O)[C@@]3(O)C(O)=C1C2=O [Minocycline, reference compound] | approximately 50 mg/kg | 4 to 8 (≈ 8.74 to 17.5 µM) |  |  |  |  |  |  |  |  |  |  | 
